# According to patent publication US6362230B1, “Sulphonamide derivatives” (Eli Lilly and Company, priority 1998, dated 2002):
# Biological target: T1, human GluR4B receptor (Homo sapiens, UniProt P48058)
# T1 construct: expressed in transfected cells
# Experiment: potentiation of agonist-induced excitability of human GluR4B receptor expressed in HEK 293 cells
# Format: cell-based
# Text: The ability of compounds of formula I or formula XVII to potentiate glutamate receptor-mediated response may be determined using fluorescent calcium indicator dyes (Molecular Probes, Eugene, Oreg., Fluo-3) and by measuring glutamate-evoked […] of calcium into GluR4 transfected HEK293 cells, as described in more detail below.
# In one test, 96 well plates containing confluent monolayers of HEK cells stably expressing human GluR4B (obtained as described in European Patent Application Publication Number EP-A1-583917) are prepared. The tissue culture medium in the wells is then discarded, and the wells are each washed once with 200 μl of buffer (glucose, 10 mM, sodium chloride, 138 mM, magnesium chloride, 1 mM, potassium chloride, 5 mM, calcium chloride, 5 mM, N-[2-hydroxyethyl]piperazine-N-[2-ethanesulfonic acid], 10 mM, to pH 7.1 to 7.3). […]
# Each test is then performed as follows. […] A second fluorescent reading is taken after 5 minutes incubation. 15 μl of 400 μM glutamate solution is then added to each well (final glutamate concentration 100 μM), and a third reading is taken. The activities of test compounds and cyclothiazide solutions are determined by subtracting the second from the third reading (fluorescence due to addition of glutamate in the presence or absence of test compound or cyclothiazide) and are expressed relative to enhance fluorescence produced by 100 μM cyclothiazide.
# T1 sequence (P48058 21-902): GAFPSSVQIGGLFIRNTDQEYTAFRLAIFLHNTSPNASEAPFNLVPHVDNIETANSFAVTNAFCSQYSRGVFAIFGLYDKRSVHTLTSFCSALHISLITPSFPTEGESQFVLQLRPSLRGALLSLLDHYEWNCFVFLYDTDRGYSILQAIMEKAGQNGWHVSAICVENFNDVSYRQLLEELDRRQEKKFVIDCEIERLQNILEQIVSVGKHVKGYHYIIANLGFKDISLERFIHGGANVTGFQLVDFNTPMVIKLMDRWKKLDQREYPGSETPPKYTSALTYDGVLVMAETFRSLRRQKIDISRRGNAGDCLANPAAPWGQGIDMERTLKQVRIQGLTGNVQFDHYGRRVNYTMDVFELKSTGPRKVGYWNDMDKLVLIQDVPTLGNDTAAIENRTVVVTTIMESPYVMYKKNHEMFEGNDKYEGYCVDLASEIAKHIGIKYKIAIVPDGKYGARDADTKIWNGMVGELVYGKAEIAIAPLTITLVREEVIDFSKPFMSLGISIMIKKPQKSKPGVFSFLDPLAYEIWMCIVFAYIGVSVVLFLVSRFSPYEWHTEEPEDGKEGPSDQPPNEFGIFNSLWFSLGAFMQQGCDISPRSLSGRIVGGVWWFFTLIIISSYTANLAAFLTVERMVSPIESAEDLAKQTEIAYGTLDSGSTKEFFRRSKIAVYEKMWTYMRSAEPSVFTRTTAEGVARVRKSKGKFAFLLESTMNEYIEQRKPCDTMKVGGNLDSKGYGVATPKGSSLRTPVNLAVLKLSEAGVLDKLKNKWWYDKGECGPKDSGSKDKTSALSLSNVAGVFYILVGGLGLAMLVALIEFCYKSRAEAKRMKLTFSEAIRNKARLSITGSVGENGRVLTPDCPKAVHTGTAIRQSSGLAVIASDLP
smiles,measurement,value
NS(=O)(=O)c1cc2c(cc1Cl)NC(C1CC3C=CC1C3)NS2(=O)=O (stereo not shown) [cyclothiazide],potentiation of agonist-induced excitability of human GluR4B receptor,potentiate agonist-induced excitability
